The record followed here is ChEMBL document CHEMBL1743341, “Cytochrome p450 enzymes mechanism based inhibitors: common sub-structures and reactivity” (Curr Drug Metab, 2005).

Assay type in all cases: ADME
The target of one data set is T1, CYP2A6 (Homo sapiens, UniProt P11509).
T1 sequence (P11509 whole entry): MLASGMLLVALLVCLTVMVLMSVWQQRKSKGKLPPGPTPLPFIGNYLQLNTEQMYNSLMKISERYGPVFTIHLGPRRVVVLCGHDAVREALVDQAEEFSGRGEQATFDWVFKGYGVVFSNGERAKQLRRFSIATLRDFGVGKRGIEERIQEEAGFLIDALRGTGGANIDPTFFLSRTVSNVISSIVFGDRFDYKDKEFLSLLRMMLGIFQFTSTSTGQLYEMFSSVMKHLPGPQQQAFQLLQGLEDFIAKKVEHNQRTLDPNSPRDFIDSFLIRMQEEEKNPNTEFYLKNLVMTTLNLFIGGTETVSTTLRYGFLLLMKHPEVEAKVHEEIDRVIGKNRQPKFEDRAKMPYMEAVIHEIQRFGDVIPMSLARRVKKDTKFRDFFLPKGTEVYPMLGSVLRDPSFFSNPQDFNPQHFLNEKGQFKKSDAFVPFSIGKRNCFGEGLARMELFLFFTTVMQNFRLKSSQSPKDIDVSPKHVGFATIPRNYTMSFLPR
Nature of the data set: (§1) Mechanism based inhibition of human cytochrome P450 2A6 measured by coumarin 7-hydroxylation.

A further data set deals with T2, Cytochrome P450 2A6 (Homo sapiens, UniProt P11509).
T2 sequence (P11509 whole entry): T1 sequence (P11509 whole entry)
The data set is described as §1.

The target of a further data set is Cytochrome P450 2E1 (Homo sapiens, UniProt P05181). In words: Mechanism based inhibition of human cytochrome P450 2E1.
Sequence of Cytochrome P450 2E1 (P05181 whole entry): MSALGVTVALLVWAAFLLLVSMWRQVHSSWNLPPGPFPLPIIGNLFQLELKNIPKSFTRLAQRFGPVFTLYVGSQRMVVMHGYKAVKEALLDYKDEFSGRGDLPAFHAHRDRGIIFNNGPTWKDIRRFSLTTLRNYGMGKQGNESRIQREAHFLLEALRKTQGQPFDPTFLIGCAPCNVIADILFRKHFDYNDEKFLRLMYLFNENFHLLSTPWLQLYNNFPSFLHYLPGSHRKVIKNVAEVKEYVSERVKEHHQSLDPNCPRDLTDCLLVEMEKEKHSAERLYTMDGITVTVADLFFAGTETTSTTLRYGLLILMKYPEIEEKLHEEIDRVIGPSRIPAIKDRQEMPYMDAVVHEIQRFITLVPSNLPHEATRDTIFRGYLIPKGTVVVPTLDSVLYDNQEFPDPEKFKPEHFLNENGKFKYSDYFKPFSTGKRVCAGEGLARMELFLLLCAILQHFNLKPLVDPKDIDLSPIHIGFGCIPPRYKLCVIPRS
The target in the next data set is T3, Cytochrome P450 1A1 (Rattus norvegicus, UniProt P00185).
T3 sequence (P00185 whole entry): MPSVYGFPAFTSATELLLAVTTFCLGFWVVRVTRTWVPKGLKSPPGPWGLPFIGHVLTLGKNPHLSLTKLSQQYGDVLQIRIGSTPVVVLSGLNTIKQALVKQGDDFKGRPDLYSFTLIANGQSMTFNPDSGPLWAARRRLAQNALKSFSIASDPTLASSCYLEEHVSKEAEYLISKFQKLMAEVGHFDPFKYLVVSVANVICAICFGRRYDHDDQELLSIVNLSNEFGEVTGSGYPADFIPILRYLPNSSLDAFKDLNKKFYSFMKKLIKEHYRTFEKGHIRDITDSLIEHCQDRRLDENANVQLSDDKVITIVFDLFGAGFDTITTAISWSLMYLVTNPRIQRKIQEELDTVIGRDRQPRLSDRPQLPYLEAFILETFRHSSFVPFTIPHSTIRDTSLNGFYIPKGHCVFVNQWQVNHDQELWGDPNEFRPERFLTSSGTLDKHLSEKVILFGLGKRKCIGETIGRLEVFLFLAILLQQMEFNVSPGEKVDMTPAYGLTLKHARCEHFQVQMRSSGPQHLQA
Nature of the data set: (§2) Mechanism based inhibition of rat cytochrome P450 CYP1A1 measured by 7-ethoxyresorufin O-deethylation (EROD).

Data set [1] deals with T4, CYP3A4 (Homo sapiens, UniProt P08684). Nature of the data set: (§3) Mechanism based inhibition of human cytochrome P450 3A4 measured by testosterone 6-beta hydroxylation. To be noted: probe testosterone (6-beta hydroxylation).
T4 sequence (P08684 whole entry): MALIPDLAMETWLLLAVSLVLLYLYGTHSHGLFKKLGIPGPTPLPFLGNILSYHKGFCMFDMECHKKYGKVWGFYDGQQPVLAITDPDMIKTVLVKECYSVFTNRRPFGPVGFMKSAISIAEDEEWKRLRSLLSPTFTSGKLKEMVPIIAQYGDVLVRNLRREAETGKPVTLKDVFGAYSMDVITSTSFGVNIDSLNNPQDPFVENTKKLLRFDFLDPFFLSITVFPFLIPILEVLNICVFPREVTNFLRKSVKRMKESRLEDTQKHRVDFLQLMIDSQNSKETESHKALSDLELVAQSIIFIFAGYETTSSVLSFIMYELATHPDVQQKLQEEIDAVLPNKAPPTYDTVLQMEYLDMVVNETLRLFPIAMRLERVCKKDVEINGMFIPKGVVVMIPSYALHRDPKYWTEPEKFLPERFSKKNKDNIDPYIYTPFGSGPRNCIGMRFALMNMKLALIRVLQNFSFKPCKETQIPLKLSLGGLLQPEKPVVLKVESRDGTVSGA
The target of data set [2] is T4, CYP3A4. Nature of the data set: (§4) Mechanism based inhibition of human cytochrome P450 3A4 measured by (14C)formaldehyde production from (N-methyl-14C)-erythromycin. To be noted: human, probe (N-methyl-14C)-erythromycin.
The target of data set [3] is T5, Cytochrome P450 3A4 (Homo sapiens, UniProt P08684). Described as §4.
T5 sequence (P08684 whole entry): as above
Data set [4] concerns the target T5, Cytochrome P450 3A4. The data set is described as §3.
The target in data set [5] is T6, Cytochrome P450 1A2 (Homo sapiens, UniProt P05177).
T6 sequence (P05177 whole entry): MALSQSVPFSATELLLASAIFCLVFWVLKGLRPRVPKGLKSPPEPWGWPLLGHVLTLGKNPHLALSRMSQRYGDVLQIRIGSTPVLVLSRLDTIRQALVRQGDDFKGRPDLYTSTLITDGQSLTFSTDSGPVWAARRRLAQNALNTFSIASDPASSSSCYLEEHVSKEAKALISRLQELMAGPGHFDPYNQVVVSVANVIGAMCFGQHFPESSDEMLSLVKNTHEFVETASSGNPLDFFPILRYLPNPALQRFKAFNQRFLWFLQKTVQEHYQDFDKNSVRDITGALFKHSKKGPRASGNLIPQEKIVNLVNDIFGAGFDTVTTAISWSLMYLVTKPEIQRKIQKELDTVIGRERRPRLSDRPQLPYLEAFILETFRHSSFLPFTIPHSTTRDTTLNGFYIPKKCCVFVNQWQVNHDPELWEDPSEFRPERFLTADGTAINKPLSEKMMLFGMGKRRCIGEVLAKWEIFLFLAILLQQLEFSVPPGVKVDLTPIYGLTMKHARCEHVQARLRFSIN
In words: Mechanism based inhibition of human cytochrome P450 1A2 measured by 7-ethoxyresorufin O-deethylation (EROD).

Another data set has as its target T7, CYP1A1 (Rattus norvegicus, UniProt P00185).
T7 sequence (P00185 whole entry): T3 sequence (P00185 whole entry)
The description is as §2. To be noted: rat, probe 7-ethoxyresorufin (O-deethylation, EROD).

Another data set concerns the target T8, CYP1A2 (Rattus norvegicus, UniProt P04799).
T8 sequence (P04799 whole entry): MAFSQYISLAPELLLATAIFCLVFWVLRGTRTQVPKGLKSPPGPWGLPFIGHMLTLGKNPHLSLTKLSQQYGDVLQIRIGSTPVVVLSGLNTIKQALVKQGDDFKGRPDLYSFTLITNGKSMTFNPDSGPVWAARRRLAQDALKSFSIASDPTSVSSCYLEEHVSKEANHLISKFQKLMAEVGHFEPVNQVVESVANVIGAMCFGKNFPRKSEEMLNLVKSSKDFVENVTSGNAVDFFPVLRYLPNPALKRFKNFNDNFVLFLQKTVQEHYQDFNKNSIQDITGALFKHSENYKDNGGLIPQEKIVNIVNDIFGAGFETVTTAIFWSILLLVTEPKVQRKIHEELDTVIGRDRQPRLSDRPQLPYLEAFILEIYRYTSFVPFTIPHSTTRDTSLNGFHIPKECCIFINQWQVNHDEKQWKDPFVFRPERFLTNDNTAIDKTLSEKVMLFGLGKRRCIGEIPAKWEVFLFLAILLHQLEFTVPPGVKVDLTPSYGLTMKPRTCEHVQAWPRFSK
In words: (§5) Mechanism based inhibition of rat cytochrome P450 CYP1A2 measured by 7-methoxyresorufin O-demethylation (MROD). To be noted: rat, probe 7-methoxyresorufin (O-demethylation, MROD).

Data set [6] deals with T9, Cytochrome P450 1A2 (Rattus norvegicus, UniProt P04799).
T9 sequence (P04799 whole entry): T8 sequence (P04799 whole entry)
The description is as §5.

`CCCC(CCC)C(=O)O` [VALPROIC ACID]: at CYP2A6 (human, probe coumarin), the kinact was 0.0008 s⁻¹. Further, the Ki on Cytochrome P450 2A6 turned out to be 9150 µM.
Turning to `COc1cc(CNC(=O)CCCC/C=C/C(C)C)ccc1O` [CAPSAICIN], on Cytochrome P450 2E1, the mechanism based inhibition entry is recorded as “Cytochrome P450 mechanistic inhibitor: PMID 7746093”.
For `CC#Cc1ccc2ccccc2c1`, the mechanism based inhibition entry on Cytochrome P450 1A1 (rat) is listed as “Cytochrome P450 mechanistic inhibitor: PMID 9074808”.
As for `NNc1nnc(NN)c2ccccc12` [DIHYDRALAZINE], the maximal inactivation rate constant (kinact) at CYP3A4 [1] was 0.000785 s⁻¹.
Regarding `COc1cc(C[C@H]2C(=O)OC[C@@H]2Cc2ccc3c(c2)OCO3)cc(OC)c1OC`, the kinact on CYP3A4 [2] is 0.00533 s⁻¹. This molecule returned a Ki on Cytochrome P450 3A4 [3] of 0.177 µM.
Turning to `CN1CCC[C@H]1c1cccnc1` [NICOTINE], the kinact at CYP2A6 (probe coumarin) was 1.18 s⁻¹.
Regarding `CC(C)CN(C[C@@H](O)[C@H](Cc1ccccc1)NC(=O)[C@@H](NC(=O)CNCc1cccc(F)c1)C(C)(C)C)S(=O)(=O)c1cccc(N)c1`, the kinact at CYP3A4 [1] (human) was 0.00367 s⁻¹. The molecule further gave a Ki at Cytochrome P450 3A4 [4] of 0.24 µM.
Regarding `CCC[C@@H](NC(=O)N1C(=O)C(CC)(CC)[C@@H]1Oc1ccc(C(=O)N2CCN(C)CC2)cc1)c1ccc2c(c1)OCO2`, the mechanism based inhibition entry at Cytochrome P450 3A4 [4] is on record as “Cytochrome P450 mechanistic inhibitor”.
Consider `COc1c2c(cc3ccc(=O)oc13)CCO2`, for which the kinact on CYP2A6 (human, probe coumarin (7-hydroxylation)) was 0.00233 s⁻¹. Also, the Ki at Cytochrome P450 2A6 worked out at 27 µM.
With `C#C` [ETHYNE], the mechanism based inhibition entry at Cytochrome P450 1A2 [5] is recorded as “Cytochrome P450 mechanistic inhibitor: PMID 9760279”.
For the molecule `OC[C@H](Cc1ccc2c(c1)OCO2)[C@H](CO)Cc1ccc2c(c1)OCO2` [DIHYDROCUBEBIN], the kinact at CYP3A4 [2] is 0.00375 s⁻¹. Further, on Cytochrome P450 3A4 [3], the Ki amounted to 0.142 µM.
For `Cn1cccc1-c1cccnc1` [NICOTYRINE], the maximal inactivation rate constant (kinact) at CYP2A6 (probe coumarin) is 0.104 s⁻¹.
Consider `CC#CCCCc1ccccc1`, for which the kinact at CYP1A1 was 0.00833 s⁻¹. Also, the Ki at Cytochrome P450 1A1 worked out at 0.54 µM.
Consider `C#Cc1cc2cccc3ccc4cccc1c4c32`, for which the kinact was 0.00117 s⁻¹ at CYP1A1 and 0.005 s⁻¹ on CYP1A2. The Ki at Cytochrome P450 1A1 turned out to be 0.01 µM; on Cytochrome P450 1A2 [6], 1.2 µM.

For orientation: kinact means the maximal first-order rate at which the target is inactivated.
